Measured values: article PMC9182199, “Borylated 2,3,4,5-Tetrachlorophthalimide and Their 2,3,4,5-Tetrachlorobenzamide Analogues: Synthesis, Their Glycosidase Inhibition and Anticancer Properties in View to Boron Neutron Capture Therapy” (Molecules, 2022)

What was measured:
A431 = test: MTT cell growth inhibition: A431; format: cell-based; conditions: A431 skin carcinoma, 25 µM, 72 h, MTT; for inhibition at 25 µM: Homo sapiens, A-431, read-out: Percentage (%) Cell Growth Inhibition in response to 25 µM of Drug
Experimental: (§1) All test agents were prepared as stock solutions (20 mM) in dimethyl sulfoxide (DMSO) and stored at −20 °C. Cell lines used in the study included HT29 (colorectal carcinoma); U87, SJ-G2, (glioblastoma); MCF-7, (breast carcinoma); A2780 (ovarian carcinoma); H460 (lung carcinoma); A431 (skin carcinoma); Du145 (prostate carcinoma); BE2-C (neuroblastoma); MiaPaCa-2 (pancreatic carcinoma); and SMA560 (spontaneous murine astrocytoma), together with the one non-tumour-derived normal breast cell line (MCF10A). All cell lines were incubated in a humidified atmosphere 5% CO2 at 37 °C. The cancer cell lines were maintained in Dulbecco’s modified Eagle’s medium (DMEM; Sigma, Australia) supplemented with foetal bovine serum (10%), sodium pyruvate (10 mM), penicillin (100 IUmL^−1), streptomycin (100 µg mL^−1) and L-glutamine (2 mM).
(§2) Growth inhibition was determined by plating cells in duplicate in medium (100 µL) at a density of 2500–4000 cells per well in 96-well plates. On day 0 (24 h after plating), when the cells were in logarithmic growth, medium (100 µL) with or without the test agent was added to each well. After 72 h drug exposure, growth inhibitory effects were evaluated using the MTT (3-(4,5-dimethyltiazol-2-yl)-2,5-diphenyltetrazolium bromide) assay and absorbance read at 540 nm. The percentage growth inhibition was calculated at a fixed concentration of 25 µM, based on the difference between the optical density values on day 0 and those at the end of drug exposure. Each data point is the mean ± the standard error of the mean (SEM) calculated from three replicates which were performed on separate occasions and separate cell line passages.

[1] = test system: bovine kidney N-acetyl-β-glucosaminidase; test: Glycosidase inhibition, laboratory 2: N-acetyl-β-glucosaminidase; format: biochemical; conditions: water
Experimental: (§3) All enzymes and para-nitrophenyl substrates were purchased from Sigma. Enzymes were assayed at 27 °C in 0.1 M citric acid/0.2 M disodium hydrogen phosphate buffers at the optimum pH for the enzyme. The incubation mixture consisted of 10 μL enzyme solution, 10 μL of 1 mg/mL aqueous solution of extract and 50 μL of the appropriate 5 mM para-nitrophenyl substrate made up in buffer at the optimum pH for the enzyme. The reactions were stopped by addition of 70 μL 0.4 M glycine (pH 10.4) during the exponential phase of the reaction, which had been determined at the beginning using uninhibited assays in which water replaced inhibitor. Final absorbances were read at 405 nm using a Versamax microplate reader (Molecular Devices). Assays were carried out in triplicate, and the values given are means of the three replicates per assay. All reactions run in water.

[2] = test system: bovine liver β-glucuronidase; test: Glycosidase inhibition, laboratory 2: bovine liver β-glucuronidase; format: biochemical; conditions: water
Experimental: as §3

almond β-glucosidase = test: Glycosidase inhibition, laboratory 2: almond β-glucosidase; format: biochemical; conditions: water
Experimental: as §3

MCF10A = test: MTT cell growth inhibition: MCF10A normal breast; format: cell-based; conditions: 72 h; for inhibition at 25 µM: Homo sapiens, MCF-10A, read-out: Percentage (%) Cell Growth Inhibition in response to 25 µM of Drug
Experimental: as §1
The non-cancer MCF10A cell line was maintained in DMEM:F12 (1:1) cell culture media, 5% heat-inactivated horse serum, supplemented with penicillin (50 IUmL^−1), streptomycin (50 µg mL^−1), HEPES (20 mM), L-glutamine (2 mM), epidermal growth factor (20 ng mL^−1), hydrocortisone (500 ng mL^−1), cholera toxin (100 ng mL^−1) and insulin ([…]).
as §2

[3] = test system: bovine liver β-glucuronidase; test: Glycosidase inhibition, laboratory 1: bovine liver β-glucuronidase; format: biochemical; conditions: methanol
From the text: (§4) The enzymes α-glucosidase (from yeast), β-glucosidases (from almond and bovine liver), α-galactosidase (from coffee beans), β-galactosidase (from bovine liver), α-mannosidase (from Jack bean), β-mannosidase (from snail), α-L-rhamnosidase (from Penicillium decumbens), α-L-fucosidase (from bovine kidney), trehalase (from porcine kidney), β-glucuronidases (from E. coli and bovine liver), amyloglucosidase (from A. niger), para-nitrophenyl glycosides, and various disaccharides were purchased from Sigma-Aldrich Co (St Louis, MO, USA).
(§5) Brush border membranes were prepared from the rat small intestine according to the method of Kessler et al. and were assayed at pH 6.8 for rat intestinal maltase using maltose. For rat intestinal maltase, porcine kidney trehalase, and A. niger amyloglucosidase activities, the reaction mixture contained 25 mM maltose and the appropriate amount of enzyme, and the incubations were performed for 10–30 min at 37 °C. The reaction was stopped by heating at 100 °C for 3 min. After centrifugation (600× g; 10 min), the resulting reaction mixture was added to the Glucose CII-test Wako (Wako Pure Chemical Ind., Osaka, Japan). The absorbance at 505 nm was measured to determine the amount of the released D-glucose. Other glycosidase activities were determined using an appropriate para-nitrophenyl glycoside as substrate at the optimum pH of each enzyme. The reaction mixture contained 2 mM of the substrate and the appropriate amount of enzyme. The reaction was stopped by addition of 400 mM Na2CO3. The released para-nitrophenol was measured spectrometrically at 400 nm. All reactions run in methanol.

Bacillus α-glucosidase = test: Glycosidase inhibition, laboratory 2: Bacillus α-glucosidase; format: biochemical; conditions: water
Experimental: as §3

yeast α-glucosidase = biological target: T1, yeast α-glucosidase (Saccharomyces cerevisiae, UniProt P53341); test: Glycosidase inhibition, laboratory 2: yeast α-glucosidase; format: biochemical; conditions: for inhibition at 400 µM: read-out: % inhibition at ~400 μM, water
T1 construct: purchased Sigma
T1 sequence (P53341 whole entry): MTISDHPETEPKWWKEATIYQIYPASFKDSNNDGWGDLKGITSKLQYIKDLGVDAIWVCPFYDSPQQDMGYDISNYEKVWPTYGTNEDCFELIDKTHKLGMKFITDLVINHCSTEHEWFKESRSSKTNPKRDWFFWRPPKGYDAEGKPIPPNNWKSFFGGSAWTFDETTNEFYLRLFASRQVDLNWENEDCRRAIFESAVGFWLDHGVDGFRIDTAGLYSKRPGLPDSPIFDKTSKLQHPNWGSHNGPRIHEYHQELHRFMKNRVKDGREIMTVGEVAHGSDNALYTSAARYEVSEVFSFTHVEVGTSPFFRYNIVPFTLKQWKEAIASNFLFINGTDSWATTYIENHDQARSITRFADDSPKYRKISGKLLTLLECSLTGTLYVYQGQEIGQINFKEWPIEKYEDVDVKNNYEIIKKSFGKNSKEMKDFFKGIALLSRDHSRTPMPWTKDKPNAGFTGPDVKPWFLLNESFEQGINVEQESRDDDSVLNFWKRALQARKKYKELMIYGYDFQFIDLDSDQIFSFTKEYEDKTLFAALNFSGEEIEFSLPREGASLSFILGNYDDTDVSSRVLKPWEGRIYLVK
Experimental: as §3

U87 = test: MTT cell growth inhibition: U87; format: cell-based; conditions: U87 glioblastoma, 25 µM, 72 h, MTT; for inhibition at 25 µM: Homo sapiens, U-87 MG, read-out: Percentage (%) Cell Growth Inhibition in response to 25 µM of Drug
Experimental: as §1, §2

MCF-7 = test: MTT cell growth inhibition: MCF-7; format: cell-based; conditions: MCF-7 breast carcinoma, 25 µM, 72 h, MTT; for inhibition at 25 µM: Homo sapiens, MCF7, read-out: Percentage (%) Cell Growth Inhibition in response to 25 µM of Drug
Experimental: as §1, §2

[4] = test system: Penicillium decumbens α-L-rhamnosidase; test: Glycosidase inhibition, laboratory 1: α-L-rhamnosidase; format: biochemical; conditions: methanol
From the text: as §4, §5

porcine kidney trehalase = test: Glycosidase inhibition, laboratory 1: trehalase; format: biochemical; conditions: methanol
From the text: as §4, §5

MIA-Pa-Ca2 = test: MTT cell growth inhibition: MIA-Pa-Ca2; format: cell-based; conditions: 72 h; for inhibition at 25 µM: Homo sapiens, MIA PaCa-2, MIA-Pa-Ca2 pancreatic carcinoma, read-out: Percentage (%) Cell Growth Inhibition in response to 25 µM of Drug
Experimental: as §1, §2

BE2-C = test: MTT cell growth inhibition: BE2-C; format: cell-based; conditions: BE2-C neuroblastoma, 72 h; for inhibition at 25 µM: Homo sapiens, BE(2)-C, read-out: Percentage (%) Cell Growth Inhibition in response to 25 µM of Drug
Experimental: as §1, §2

[5] = biological target: bovine liver β-galactosidase; test: Glycosidase inhibition, laboratory 1: bovine liver β-galactosidase; format: biochemical; conditions: methanol
From the text: as §4, §5

SJ-G2 = test: MTT cell growth inhibition: SJ-G2; format: cell-based; conditions: SJ-G2 glioblastoma, 72 h; for inhibition at 25 µM: read-out: Percentage (%) Cell Growth Inhibition in response to 25 µM of Drug
Experimental: as §1, §2

| Compound | inhibition at 25 µM (A431) [%] | % inhibition at ~400 μM [1] [%] | % inhibition at ~400 μM [2] [%] | % inhibition at ~400 μM (almond β-glucosidase) [%] | inhibition at 25 µM (MCF10A) [%] | inhibition % at 100 μM [3] | % inhibition at ~400 μM (Bacillus α-glucosidase) [%] | inhibition at 400 µM (yeast α-glucosidase) [%] | inhibition at 25 µM (U87) [%] | inhibition at 25 µM (MCF-7) [%] | inhibition % at 100 μM [4] | inhibition % at 100 μM (porcine kidney trehalase) | inhibition at 25 µM (MIA-Pa-Ca2) [%] | inhibition at 25 µM (BE2-C) [%] | IC50 [5] [µM] | inhibition at 25 µM (SJ-G2) [%] | further results |
| --- | --- | --- | --- | --- | --- | --- | --- | --- | --- | --- | --- | --- | --- | --- | --- | --- | --- |
| CC1(C)OB(c2ccccc2CNC(=O)c2cc(Cl)c(Cl)c(Cl)c2Cl)OC1(C)C [ortho 8, 2,3,4,5-tetrachloro-N-(2-(4,4,5,5-tetramethyl-1,3,2-dioxaborolan-2-yl)benzyl)benzamide] | < 0 | 28.3 | −6.3 | 83.4 | < 0 | ^aNI ^b (16.3%) | 23.7 | 68.9 | < 0 | < 0 | ^aNI ^b (6.2%) | ^aNI ^b (16.8%) | 6 ± 10 | 2 ± 5 | 278 | < 0 | – |
| CC1(C)OB(c2ccc(NC(=O)c3cc(Cl)c(Cl)c(Cl)c3Cl)cc2)OC1(C)C [para 5, 2,3,4,5-tetrachloro-N-(4-(4,4,5,5-tetramethyl-1,3,2-dioxaborolan-2-yl)phenyl)benzamide] | 64 ± 4 | 20.6 | −2.2 | 11.3 | 2 ± 11 | ^aNI ^b (36.5%) | 20 | 38.4 | 21 ± 16 | 42 ± 5 | ^aNI ^b (14.4%) | ^aNI ^b (0%) | 52 ± 1 | 54 ± 1 | 333 | 28 ± 6 | – |
| Borocaptate sodium [BSH, reference compound] | – | 37.1 | 31.6 | 47.3 | – | – | 48.1 | – | – | – | – | – | – | – | – | – | Percentage (%) Cell Growth Inhibition in response to 25 µM of Drug (A431): <0%; Percentage (%) Cell Growth Inhibition in response to 25 µM of Drug (MCF10A; MCF10A breast (normal), 25 µM, MTT): 8 ± 3%; inhibition % at 1000 μM ([3]; 1000 μM): ^aNI ^b (19.6%); % inhibition at ~400 μM (yeast α-glucosidase; water): 59%; Percentage (%) Cell Growth Inhibition in response to 25 µM of Drug (U87): <0%; Percentage (%) Cell Growth Inhibition in response to 25 µM of Drug (MCF-7): 15 ± 3%; inhibition % at 1000 μM ([4]; 1000 μM): ^aNI ^b (0.2%); inhibition % at 1000 μM (porcine kidney trehalase; 1000 μM): ^aNI ^b (4.2%); Percentage (%) Cell Growth Inhibition in response to 25 µM of Drug (MIA-Pa-Ca2; MIA-Pa-Ca2 pancreatic carcinoma): 2 ± 6%; Percentage (%) Cell Growth Inhibition in response to 25 µM of Drug (BE2-C): 10 ± 6%; inhibition % at 1000 μM ([5]; 1000 μM): ^aNI ^b (0%); Percentage (%) Cell Growth Inhibition in response to 25 µM of Drug (SJ-G2): 3 ± 8% |
